Biological target: T1, Mfsd2b (Mus musculus, UniProt Q3T9M1)
T1 construct: full-length native transporter in isolated mouse erythrocytes; Mfsd2b knockout erythrocytes as control
T1 sequence (Q3T9M1 1-494): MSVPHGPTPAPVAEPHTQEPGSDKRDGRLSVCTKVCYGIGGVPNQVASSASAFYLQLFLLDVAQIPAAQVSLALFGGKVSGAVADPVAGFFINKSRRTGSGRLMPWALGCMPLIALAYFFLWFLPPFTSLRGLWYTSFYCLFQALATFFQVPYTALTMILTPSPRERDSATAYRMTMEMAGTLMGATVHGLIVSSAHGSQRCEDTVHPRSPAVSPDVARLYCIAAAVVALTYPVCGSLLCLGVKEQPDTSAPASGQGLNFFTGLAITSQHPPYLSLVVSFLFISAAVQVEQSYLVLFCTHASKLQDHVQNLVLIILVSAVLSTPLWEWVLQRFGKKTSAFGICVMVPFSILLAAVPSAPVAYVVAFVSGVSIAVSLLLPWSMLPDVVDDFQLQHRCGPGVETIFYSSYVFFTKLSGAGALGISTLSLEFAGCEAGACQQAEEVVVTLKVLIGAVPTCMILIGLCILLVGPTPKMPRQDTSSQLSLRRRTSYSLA
Experiment: [[…]-3H]-S1P export, WT versus Mfsd2b KO erythrocytes
Type: cell-based
Settings: S1P formed inside from [3-3H]-Sph; 0.5% BSA acceptor; pH 7.4; labelled compound

CCCCCCCCCCCCC/C=C/[C@@H](O)[C@@H](N)COP(=O)(O)O [S1P]
[3-3H]-S1P export, WT versus Mfsd2b KO erythrocytes: Mfsd2b KO erythrocytes showed a significant reduction of S1P transport

Reference: paper PMC7948482, “Erythrocytes efficiently utilize exogenous sphingosines for S1P synthesis and export via Mfsd2b” (The Journal of Biological Chemistry, 2021)
